Source: US8470534B2, “Methods of predicting resistance or sensitivity to therapies for cancer” (priority 2006, dated 2013)

Assays:
[1] = tested on: MCF7 donor or siRb xenograft tumors; assay: Nude mouse xenograft therapeutic study; assay type: in vivo, nude mice
Procedure: The xenograft model system is then utilized to test the response of RB-deficient tumors to CDDP therapy. Tumors are developed in the flanks of mice by injecting MCF7 donor or siRb cells into the flanks of mice and implanting a […] (E2) pellet into the back. When tumors reached 100-110 mm^3, mice received 5 mg/kg CDDP every 4 days for 5 courses.
To assess the role of RB in the therapeutic response of MCF7 cells in vivo, the xenograft model is again employed. Upon the attainment of tumors of approximately 100-120 mm^3, mice are deprived of estrogen and treated with Tam. […] (FIG. 4F). […] All tumors are weighed upon exclusion, and RB-deficient tumors are more than 3 times heavier than control tumors following Tam therapy (FIG. 4G).
Five- to 8-week-old female ovariectomized athymic nude mice are anesthetized, and an E2 pellet (1.7 mg/pellet, 90-day release) or placebo is surgically implanted in the back. Following implantation, 200 μl of a PBS- and phenol red-free Matrigel matrix basement membrane, solution (3:1) containing 2×10^6 cells is injected subcutaneously into the flank, or contralaterally where noted. Tumor volume is measured with calipers every 4 days using the equation V=0.52 (width)^2 ×(length). In the therapeutic studies, when tumor volume reaches 100-120 mm^3, animals are placed into 1 of 3 therapeutic groups (each group containing at least 6 animals): control animals retaining the estrogen pellet, antiestrogen-treated animals, or CDDP-treated animals. Animals in the antiestrogen treatment group are anesthetized, the estrogen pellet is surgically removed, and a Tam pellet (5 mg/pellet, 60-day release) implanted. The CDDP-treated animals receive 5 mg/kg CDDP injected i.p. on a q4dx5 schedule (every 4 days for 5 courses). All animals are injected i.p. with 150 mg/kg BrdU (Sigma-Aldrich) 1 hour prior to euthanization. Xenograft tumors are weighed and fixed in 10% neutral buffered formalin, paraffin embedded, and cut into 5-ÿm sections. For immunohistochemical staining, sections are deparaffinized in xylene and rehydrated through a graded series of ethanol/water solutions. A BrdU detection kit is utilized as recommended by the manufacturer. BrdU incorporation is scored in a blinded manner, and at least 500 cells per section are counted from several random fields.

[2] = tested on: MCF7, T47D, and Zr-75-1 cells; assay: BrdU incorporation (cell-cycle checkpoint) after CDDP treatment; assay type: cell-based, human
Procedure: The RB and p53 tumor suppressors are known to be critical for induction of DNA damage checkpoints, and therapies inducing DNA damage are used as an additional line of treatment for ER-positive breast cancers resistant to hormonal therapy. Therefore, the role of these tumor suppressors in the response to therapeutic doses of DNA-damaging agents is investigated. Wild-type MCF7, T47D, and Zr-75-1 cells are treated with 0, 8, or 16 μM CDDP and labeled with BRDU to determine the effect of the agent on cell-cycle progression. […] To specifically probe the impact of RB in the response to DNA damage, T47D and Zr-75-1 polyclonal donor and siRb88 cells are utilized. […] To confirm these findings, MCF7 donor 1 and siRb28 cells are treated with either CDDP as described above or with 0, 2.5, or 5 Gy ionizing radiation (IR). […] To determine the long-term effect of DNA damage therapy upon proliferation, cell growth assays are performed wherein the RB-proficient and deficient MCF7 clones are plated at equal density and treated with 2.5 or […].
(§1) RB target gene upregulation is a prognostic indicator in human breast cancers. RB performs a myriad of functions, the most well understood being repression of the E2F family of transcription factors. To determine the specific influence of the E2F axis on bypassing therapy, an activator E2F is overexpressed in wild-type MCF7 cells. Specifically, cells are infected either with an adenovirus encoding E2F3 (ad-E2F3) or a control virus (Ad-LacZ) and are harvested 3 days after infection for immunoblot analysis of levels of known RB-E2F targets (FIG. 5A). […] As expected, no changes are detected in RB levels, and CDK4 serves as a loading control. In order to assess the response to therapeutic intervention, 3 days after infection Ad-E2F3- or AdLacZ-infected MCF7 cells are separated into 2 major treatment groups: hormone therapy and DNA damage therapy. The estrogen ablation group is then cultured in the absence of estrogen and in the presence of Tam and ICI as described above. Alternatively, the cells in the DNA damage therapy group are treated with 16 μM CDDP for 18 hours prior to washing or treatment with 5 Gy IR. Cells from both therapy groups are BrdU labeled, and the replicative fraction of treated cells is determined with respect to untreated control cells (FIG. 5B).
The MCF7, T47D, and Zr-75-1 cell lines are obtained from ATCC and propagated in DMEM containing 10% FS supplemented with 100 U/ml penicillin/streptomycin and 2 mM L-glutamine at 37° C. in air containing 5% CO2. […] Cells are infected with Ad-lacZ at a multiplicity of infection of 50, at which 95% of cells are infected (as determined by plaque assay in 293 cells) or with 2.7×10^11 virus particles/ml of Ad-E2F3 and cultured for 3 days prior to use. […]

[3] = tested on: MCF7, T47D, and Zr-75-1 cells; assay: BrdU incorporation under hormone deprivation / antiestrogen (CDT, CDT/Tam, CDT/ICI); assay type: cell-based, human
Procedure: To understand the impact of RB deficiency on the response to hormone deprivation therapy, cells are cultured in CDT, CDT/Tam, or in the presence of pure antiestrogen, ICI182780 (CDT/ICI). Following treatment with these modalities, cells are labeled with BrdU to determine the influence of each agent on cell-cycle progression and the corresponding influence of RB knockdown on this response (FIG. 4B). These experiments are recapitulated in the polyclonal populations of T47D and Zr-75-1 donor and siRb88 cells (FIG. 4C). […] To elucidate the long-term growth effects of these therapies, cell proliferation assays are performed over 9 days. RB-proficient and -deficient MCF7 cells are seeded at equal densities and cultured in CDT/Tam (FIG. 4D). […] Similar results are evident in the same experiments with both T47D and Zr-75-1 RB-proficient and -deficient polyclonal pools (FIG. 4E).
as §1
To study the effect of estrogen depletion, cells are cultured for 72 hours in phenol red-free DMEM supplemented with 10% CDT serum with addition of 10^−9 M 4-HydroxyTam or 10^−6 M ICI where indicated. Cell growth assays are performed by trypsinizing cells and counting by trypan blue exclusion every 3 days.
Cells treated with IR are exposed to ^137Cs (dose rate: 0.67 Gy/min) at room temperature in tissue culture media. Culture with clinical grade CDDP for 18 hours is performed for all CDDP treatments. For all proliferation studies, cells are labeled with BrdU for 10 hours or 5 hours for LXSN/LXSN-p53dd infected cells, and BrdU immunofluorescence is performed as previously described. All BrdU results are expressed as a percentage of untreated control cells set to 100%, unless otherwise noted.

| SMILES | tumor response during treatment, RB-deficient tumors ([1]; RB-deficient MCF7 tumors versus control tumors, 5 mg/kg CDDP every 4 days for 5 courses) | tumor response during treatment ([1]; RB-proficient and RB-deficient MCF7 tumors, 5 mg/kg CDDP i.p. every 4 days for 5 courses) | tumor weight upon excision, tumors lacking RB relative to control tumors ([1]; following CDDP therapy) | cell-cycle arrest (replicative fraction, BrdU) ([2]; Ad-E2F3-infected versus control infected MCF7 cells, 16 μM CDDP for 18 hours) | DNA damage checkpoint (BrdU labeling) ([2]; MCF7 siRb28 versus donor 1 cells, CDDP 0, 8, or 16 μM) | BrdU incorporation following DNA damage ([2]; RB-deficient (siRb88) T47D and Zr-75-1 cells, 0, 8, or 16 μM CDDP) | effect on cell-cycle progression (BrdU labeling) ([2]; wild-type RB-positive MCF7, T47D, Zr-75-1 cells, 0, 8, or 16 μM CDDP for 18 hours, BrdU 10 hours) | cell-cycle arrest (replicative fraction, BrdU) ([3]; Ad-E2F3-infected versus control infected MCF7 cells, absence of estrogen plus agent) | cell-cycle inhibition by the agent (BrdU labeling) ([3]; RB-depleted cells (MCF7 siRb28, T47D and Zr-75-1 siRb88), CDT serum plus agent, 3 days) | cell-cycle progression (BrdU labeling) ([3]; cells harboring functional RB (MCF7, T47D, Zr-75-1 donor), CDT serum plus agent, 3 days, 10^−9 M 4-HydroxyTam or 10^−6 M ICI) |
| --- | --- | --- | --- | --- | --- | --- | --- | --- | --- | --- |
| N.N.[Cl][Pt][Cl] [CDDP, cis-diamminedichloroplatinum II] | regressed more rapidly | both tumor types regressed | less than half as much as control tumors | significantly reduced levels of cell-cycle arrest | RB deficiency promotes bypass of the DNA damage checkpoints | continue to incorporate BrdU efficiently | dose-dependent cell-cycle checkpoint | – | – | – |
| C[C@]12CC[C@@H]3c4ccc(O)cc4C[C@@H](CCCCCCCCC[S+]([O-])CCCC(F)(F)C(F)(F)F)[C@H]3[C@@H]1CC[C@@H]2O (stereo partly shown) [ICI182780] | – | – | – | – | – | – | – | significantly reduced levels of cell-cycle arrest | significantly reduced | elicit cell-cycle inhibition |
